TGI and GI50 data for 12 molecules are collected here from PubChem BioAssay (NCI).

Structures are written as SMILES. Values joined by “and” are separate entries in the source; they are usually repeats but may differ in a detail not shown here. Identical values can stand only once.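 Step 1: Grow cells in 96-well plates. Step 2: Expose to compound for 48 hours at 5 concentrations. Step 3: Interpolate endpoints linearly; if unreached, use highest concentration. GI50 marks 50% less growth. TGI: total growth inhibition.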 A value given as a limit tells only on which side of the number the result lay.

Among the test systems are 786-0 renal; CCRF-CEM leukemia; DLD-1 colon; KM20L2 colon; M19-MEL melanoma; UACC-257 melanoma; UO-31 renal; SW-620 colon; DU-145 prostate; PC-3 prostate; T-47D breast.
Holding throughout (assay): DTP human tumour cell line panel, 48 h

One may read the TGI as the concentration giving total growth inhibition. A higher TGI goes with less potent growth arrest. For `N#CNC(N)=NCc1ccccc1`, the TGI in the assay with 786-0 renal, in the assay on CCRF-CEM leukemia, in the assay on DLD-1 colon, in the assay on KM20L2 colon, with M19-MEL melanoma and in the assay with UACC-257 melanoma was greater than 100 µM in each case. This molecule also yielded a TGI in the assay on UO-31 renal greater than 100 µM.

Take `CN(C)CCNC(=O)c1cccc2c1Nc1ccccc1S2`: the TGI in the assay with CCRF-CEM leukemia is 28.1 µM; with DLD-1 colon, 29.7 µM; in the assay with KM20L2 colon, 29.9 µM; in the assay on M19-MEL melanoma, 29.6 µM; with SW-620 colon, 30.8 µM; with UACC-257 melanoma it was 27 µM. The same molecule displayed a TGI with UO-31 renal of 21.8 µM.

One may read the GI50 as the concentration giving 50% growth inhibition. On to `Cc1c2ccnc(C(N)=O)c2c(C)c2c1[nH]c1ccccc12`, for which the TGI is 23.3 µM with 786-0 renal; 46.6 µM and > 100 µM with CCRF-CEM leukemia; 45 µM and 23.6 µM in the assay on DLD-1 colon; 40.5 µM with KM20L2 colon; 25.2 µM and 17.4 µM with M19-MEL melanoma; 45.6 µM and 40.8 µM with SW-620 colon. Further, the TGI in the assay with UACC-257 melanoma was 35.1 µM; in the assay on UO-31 renal, 25.2 µM and 21.7 µM. Moreover, the GI50 in the assay with CCRF-CEM leukemia was 3.64 µM; with DLD-1 colon, 3.57 µM; in the assay on M19-MEL melanoma, 4.7 µM; in the assay with UO-31 renal it was 5.6 µM.

Regarding `CN(C)c1nc(Oc2nc(N(C)C)nc(N(C)C)n2)nc(N(C)C)n1`, the TGI with 786-0 renal, in the assay on CCRF-CEM leukemia, in the assay with DLD-1 colon, with KM20L2 colon, in the assay with M19-MEL melanoma and in the assay with SW-620 colon was greater than 100 µM in each case. Also, the TGI in the assay with UACC-257 melanoma and with UO-31 renal was greater than 100 µM throughout.

For `CSCC[C@@H](NC(=O)[C@H](CC(C)C)NC(=O)C(Cc1cnc[nH]1)NC(=O)CNC(=O)[C@@H](NC(=O)[C@H](C)NC(=O)[C@H](Cc1c[nH]c2ccccc12)NC(=O)[C@H](CCC(N)=O)NC(=O)[C@@H](N)CC(N)=O)C(C)C)C(N)=O` (stereo not given in full), the TGI in the assay with CCRF-CEM leukemia, with DLD-1 colon, in the assay on KM20L2 colon, in the assay with M19-MEL melanoma, in the assay on SW-620 colon and in the assay on UACC-257 melanoma was greater than 100 µM each time. This molecule also had a TGI in the assay on UO-31 renal greater than 100 µM.

On to `COc1cc2ccc3c4cc(OC)c(OC)cc4c[n+](C)c3c2cc1O`, for which the TGI in the assay on 786-0 renal, in the assay with CCRF-CEM leukemia, in the assay with DLD-1 colon, in the assay on KM20L2 colon, in the assay on M19-MEL melanoma and with SW-620 colon was greater than 100 µM each time. Also, the TGI with UACC-257 melanoma and in the assay with UO-31 renal was greater than 100 µM throughout.

For the molecule `CCCCCCN(CCCCCC)C(=S)N/N=C(\C)c1ccccn1`, the TGI in the assay with 786-0 renal worked out at 2.38 µM; with CCRF-CEM leukemia it was 4.39 µM; in the assay on DLD-1 colon it was 2.93 µM; in the assay with DU-145 prostate, 2.59 µM; with KM20L2 colon it was 2.34 µM; with PC-3 prostate, 1.88 µM. Further, the TGI was 4.77 µM in the assay on SW-620 colon, 1.91 µM in the assay with T-47D breast, 4.34 µM in the assay on UACC-257 melanoma and 3.07 µM with UO-31 renal.

In the case of `CCCCCCCC(=O)OCC(COC(=O)C(C)(C)C)OC(=O)Cc1ccccc1` (stereo not given), the TGI in the assay with 786-0 renal, with CCRF-CEM leukemia, in the assay on DLD-1 colon, in the assay on KM20L2 colon, in the assay on M19-MEL melanoma and in the assay with SW-620 colon was greater than 100 µM in each case. Moreover, the TGI in the assay with UO-31 renal is greater than 100 µM.

Consider `CC1=NN(C(=O)Cc2ccccc2)C(=O)/C1=C\c1ccc(O)cc1`, for which the TGI in the assay with 786-0 renal, with CCRF-CEM leukemia, with DLD-1 colon, with KM20L2 colon, in the assay on M19-MEL melanoma and in the assay with SW-620 colon was greater than 100 µM in each case. The total growth inhibition concentration (TGI) in the assay on UACC-257 melanoma and with UO-31 renal was greater than 100 µM throughout.

Turning to `COc1cc(C)c(CC/C(C)=C/Cc2cc(O)ccc2O)c(C)c1C`, the concentration for total growth inhibition (TGI) with 786-0 renal, in the assay on CCRF-CEM leukemia, in the assay on DLD-1 colon, with KM20L2 colon, in the assay with M19-MEL melanoma and in the assay with SW-620 colon was greater than 25 µM throughout. Moreover, the TGI in the assay on UO-31 renal was greater than 25 µM.

As for `O=[N+]([O-])c1ccc(C[P+]2(c3ccccc3)CCCCC2)cc1`, the total growth inhibition concentration (TGI) in the assay on 786-0 renal, in the assay on CCRF-CEM leukemia, with DLD-1 colon, in the assay with KM20L2 colon, in the assay on SW-620 colon and in the assay on UACC-257 melanoma was greater than 100 µM throughout. In addition, the TGI with UO-31 renal is greater than 100 µM.

With `C[C@]12CCC3[C@@H](CCC45OC4C(=O)CC[C@]35C)C1Cc1cnn(-c3ccc(F)cc3)c1N2` (stereo not given in full), the TGI in the assay with 786-0 renal is 35.2 µM; in the assay with CCRF-CEM leukemia it was greater than 100 µM; in the assay with KM20L2 colon, 62.6 µM; in the assay on M19-MEL melanoma it was greater than 100 µM; in the assay with SW-620 colon, 97 µM; with UACC-257 melanoma, greater than 100 µM. Also, the TGI with UO-31 renal was greater than 100 µM.
